A short description of the data set: Uptake of L-carnitine by patients from oral dosage forms, measured by serum plasma levels. Type of data set: in vivo. An excerpt:
Softgel capsules provide improved delivery of the components of the composition of the present invention compared to alternative dosage forms. For example, the uptake of L-carnitine by patients from tablets (e.g., measured by serum plasma levels) is about 10-14%; the uptake of L-carnitine from standard hard capsules is about 15-20%; whereas the uptake of L-carnitine from softgel capsules is about 100%.

Consider `C[N+](C)(C)C[C@H](O)CC(=O)[O-]` [L-carnitine], for which the “uptake of L-carnitine” value is on record as “about 100%” (from softgel capsules), 15-20% (from standard hard capsules) and 10-14% (from tablets).

(Values after patent US20070243211A1, “Compositions for regulating metabolic disorders and methods of use thereof” (priority 2005, published 2007).)
